pIC50: −log10 of the molar value. Several values for one entry are separate records, joined by “and”; a condition that tells them apart may be missing. Equal values may be shown once. Square brackets hold non-standard residues; d marks the D form. Ends that are not written are not given here. Peptide text beside a SMILES is read from it. * marks the point of attachment. pGlu = O=C1CC[C@@H](C(=O)O)N1; X1 = C[n+]1cccc(C(=O)*)c1
Experiments:
[1] = Stability and water solubility observed during synthesis; type: physicochemical; conditions: reaction work-up
Description: In all cases before the N-alkylation step, the intermediates were purified by chromatography. In order to avoid side reactions, the N-methylations were performed at room temperature (20°-25° C.) with a slight excess of alkylating agent. The reductions with sodium dithionite were accomplished by cooling at 0°-5° C. in oxygen-free conditions at a pH of approximately 7. The quaternary salts are fairly stable when isolated, but the dihydropyridine derivatives are easily oxidized or hydroxylated and in acid conditions react readily with water.
Trigonellyl-Ala-Tyr-Arg-cholesteryl ester methylsulfate (0.09 g, […]) (30) was dissolved in 20 ml of H2 O, then NaHCO3 (0.05 g, […]) and Na2 S2 O4 (0.07 g, 0.04 mmol) were added in small portions while stirring at 0° C. The reaction vessel was stoppered under nitrogen and allowed to stir for 1.5 hours at 0° C. […] The extraction was repeated 3 times, the organic layers were combined and the solvent was removed in vacuo, to afford 0.056 g of compound (31), yield 62.2%.

[2] = system: opioid ([^3 H]diprenorphine-based competitive assay); experiment: [3H]diprenorphine-based competitive assay; type: binding; conditions: read-out: 50 percent inhibitory concentration (IC50)
Description: The test procedure is described hereinbelow following the EXAMPLES, and the results are shown in Tables 5-8 and FIGS. 3-5 for (A) where [SEQ. ID NO. 27] YAGFL is [D-Ala^2 ]-[D-Leu]-enkephalin; i.e., Compound (64) in the EXAMPLES. The targetor-peptide conjugates (C), such as compound (70), are weak opioids. The 50 percent inhibitory concentration (IC50) measured with [^3 H]diprenorphine-based competitive assay is about 10^-7 M, an order of magnitude less than the IC50 of about 10^-8 M for the enkephalin analogs. At the measured 500 to 700 pmol/g tissue concentration, even these weak opioids exert significant analgesic activity. The enkephalin analog may also be released slowly from the targetor-peptide conjugate in vivo, and contribute to the CNS activity. No analgesia was observed after the intravenous administration of the unmanipulated enkephalins, which are membrane-impermeable and unprotected toward various peptide-degrading enzymes, nor after the injection of the partially conjugated (either with the targetor or with cholesteryl) peptides. Modification of the spacer (S) function may allow for the peptidolytic release of the parent peptide from the conjugate at a desired rate, depending on the therapeutic objective.

Swiss Webster mice = experiment: Methohexital (barbiturate)-induced sleeping time in mice after i.v. injection; type: in vivo; conditions: for methohexital induced sleeping time, individual animals / methohexital induced sleeping time, mean: methohexital 90 mg/kg i.p. 10 min later
Description: Two representative chemical delivery systems (CDS's) of the invention for the TRH analog [Leu^2 ]-TRH, i.e., compound (8) of Scheme I/EXAMPLE 8, which has an alanine spacer, and compound (12) of Scheme II/Example 12, which has an alanine-alanine spacer, were studied for their effects on the barbiturate-induced sleeping time in mice. TRH is known to antagonize the reduction in cholinergic activity induced by barbiturates. Thus, the activational effects of the CDS's for TRH analogs on cholinergic neurons can be measured by quantitating the antagonism of pentobarbital-induced sleeping and barbiturate-induced reduction in cholinergic neuronal activity.
Swiss Webster mice weighing 30±2 g were used. The compounds were dissolved in a vehicle consisting of DMSO, ethanol and 50% (w/w) 2-hydroxypropyl-β-cyclodextrin at a ratio of 1:2:1 (15 mg/ml). CDS's at a dose of 30 mg/kg were injected in the animals through the tail vein. Vehicle only and an equimolar dose of TRH and [Leu^2 ]-TRH, 10 mg/kg, were also administered to compare CNS activities. Ten minutes after i.v. injection of the compound, each animal received an intraperitoneal injection of sodium methohexital solution (45 mg/ml) at a dose of 90 mg/kg. The sleeping time was recorded as the time elapsed from the onset of loss of the […] until the reflex was regained. Each compound and the vehicle control were tested on 5-11 animals. The statistical analysis was performed using the Student's t test.

[3] = Detection of peptide conjugates in rat brain tissue and blood by electrospray ionization MS after i.v. compound (A); type: in vivo; conditions: 15 minutes after i.v. compound (A) for [D-Ala2]-Leu-enkephalin, 20 mg/kg, rats; estimated
Description: This approach has been evaluated by using electrospray ionization mass spectrometry, which provides the specificity necessary to monitor the biotransformation processes that occur after delivery. In vivo distribution studies with rats as experimental models (described in detail below) have shown that, upon systemic administration, the modified peptide can partition by passive, nonsaturable transport into the brain which is inaccessible to the unmanipulated compound. At this first step, the modified peptide simply enters the brain because of its lipoidal nature. The targetor moiety, however, undergoes an enzyme-mediated oxidation analogous to the endogenous NAD(P)H.revreaction.NAD(P)^+ coenzyme associated with numerous oxidoreductases and cellular respiration. […]
Detection of the peptide conjugates in the brain tissue by electrospray ionization mass spectrometry was carried out after systemic administration of compound (A). […] The solvent was removed under a dry nitrogen stream, and the reconstituted (in 50% methanol plus 50% water containing 3% acetic acid) sample was analyzed by electrospray ionization mass spectrometry at 5 μl/minute flow rate. […] Quantification was based on comparing the peak intensity to that obtained from the brain sample of an untreated animal spiked with a known amount of compound (C).

[4] = system: brain peptidases (rat brain homogenate); experiment: Incubation of targetor-peptide conjugate in rat brain homogenate; type: in vitro ADME; conditions: 30 nmol in 1 ml 20% rat brain homogenate, pH 7.4 Tris, 37° C., 0.5 and 2 hours
Description: Compound (C) (30 nmol) was added to one ml rat brain homogenate (20%, w/w, in pH 7.4 Tris buffer), and the mixture was incubated at 37° C. Aliquots (250 t l) were removed 0.5 and 2 hours after incubation, and electrospray ionization mass spectra were obtained after sample preparation identical to that described above. Proteolytic cleavages are identified by the m/z of the products, and the corresponding structures are shown in the Scheme.

[5] = ACTH4-9 analog, behavioral effects; cited from earlier work
[6] = Table 1 experiment, 10 mg/kg i.v. (equimolar), mice
[7] = Table 2 experiment, 10 mg/kg i.v., mice

Compound: CC(C)CCC[C@@H](C)[C@H]1CC[C@H]2[C@@H]3CC=C4C[C@@H](OC(=O)[C@H](CCCNC(=N)N)NC(=O)[C@H](Cc5ccc(O)cc5)NC(=O)[C@H](C)NC(=O)C5=CN(C)C=CC5)CC[C@]4(C)[C@H]3CC[C@]12C [(31), 1,4-Dihydrotrigonellyl-Ala-Tyr-Arg-Cholesteryl Ester]
- solubility in water (in words) [1]: not soluble in water

Compound: CC(C)C[C@@H](NC(=O)[C@H](Cc1ccccc1)NC(=O)CNC(=O)[C@@H](C)NC(=O)[C@H](Cc1ccc(O)cc1)NC(=O)[C@H](C)NC(=O)c1ccc[n+](C)c1)C(=O)O [(70), Trigonellyl-Ala-Tyr-D-Ala-Gly-Phe-D-Leu-OH Methylsulfate] (X1-AY[dA]GF[dL]-OH)
- pIC50 [2]: ~7.00

Compound: CC(C)C[C@H](NC(=O)[C@@H]1CCC(=O)N1)C(=O)N1CCC[C@H]1C(N)=O [[Leu^2]-TRH, PyroGlu-Leu-Pro-NH2] ([pGlu]-Leu-Pro-NH2)
- methohexital induced sleeping time, individual animals (Swiss Webster mice; [6]): 33.95 min and 37.37 min and 28.22 min and 15.03 min and 33.63 min and 20.90 min and 27.97 min and 36.80 min
- methohexital induced sleeping time, mean (Swiss Webster mice; [6]): 29.23 min
- methohexital induced sleeping time, individual animals (Swiss Webster mice; [7]): 15.18 min and 11.95 min and 12.47 min and 11.17 min and 8.53 min and 8.02 min
- methohexital induced sleeping time, mean (Swiss Webster mice; [7]): 11.22 min
- effect on barbiturate-induced sleeping time (in words) (Swiss Webster mice; first experiment (Table 1), compared to control or [Leu2]-TRH): no significant difference between the control and [Leu^2 ]-TRH
- behavior / symptoms of animals after i.v. administration (Swiss Webster mice; mice, i.v.): a few animals (1-2) showed the same symptoms as in the case of TRH
- effect on sleeping time (in words) (Swiss Webster mice; second experiment (Table 2), compared to TRH or vehicle control): significantly reduced

Compound: Compound (C): locked-in targetor-peptide conjugate (m/z 760) of [D-Ala2]-Leu-enkephalin, formed from compound (B) by cleavage of the cholesteryl ester ({N‑methylnicotinoyl}-AY[dA]GFL; not fully specified)
- level in brain tissue [3]: 500-700 picomole/g tissue
- processing in rat brain homogenate (in words) [4]: processed by the brain peptidases similarly to the unmanipulated compound

Compound: Org 2766: very active ACTH4-9 analog with oxidized methionine at 4, D-lysine at 8, phenylalanine at 9 (MEHF[dK]F; not fully specified (residue 1); printed as Met Glu His Phe Lys Phe)
- potentiation [5]: 1000 fold
